Reference: patent US7807676B2, “Diketo-Piperazine and Piperidine derivatives as antiviral agents” (priority 2006, dated 2010)
Structures can show the parent of a compound that is named as a salt.

The compounds below were run on HIV-1 single-round infectious reporter virus (assay: Single-round infectious HIV-1 luciferase reporter virus infection of HeLa CD4 cells (antiviral EC50)). Conditions: Human immunodeficiency virus 1, HeLa, read-out: EC50 Group from Table 3.
Type: cell-based
Summary of the method: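 Env-pseudotyped single-round HIV-1 reporter virus (env-deleted provirus with luciferase in place of nef, made in 293 cells) infected HeLa CD4 cells at MOI ~0.01 with compound present, up to 10 μM final. Luciferase luminescence read after 72 h at 37 °C; EC50 from four-parameter logistic fit of % inhibition over 10 concentrations.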

Row | SMILES | EC50 [nM]
1 | Nc1ccnn1-c1ncc(F)c2c(C(=O)C(=O)N3CCN(c4nnnn4-c4ccccc4)CC3)c[nH]c12 [B-5, 1-(7-(5-amino-1H-pyrazol-1-yl)-4-fluoro-1H-pyrrolo[2,3-c]pyridin-3-yl)-2-(4-(1-phenyl-1H-tetrazol-5-yl)piperazin-1-yl)ethane-1,2-dione] | < 500
2 | Cn1ccc(-c2ncc(F)c3c(C(=O)C(=O)N4CCN(c5nnnn5-c5ccccc5)CC4)c[nH]c23)n1 [B-29] | < 500
3 | COc1cnc(-n2cnc(C)n2)c2[nH]cc(C(=O)C(=O)N3CCN(C4=C(c5ccccc5)C(=O)c5ccccc54)CC3)c12 [D-7] | < 500
4 | CN(C)c1nc(N2CCN(C(=O)C(=O)c3c[nH]c4c(-n5ccnn5)ncc(F)c34)CC2)nn1-c1ccccc1 [G-4c] | > 500
5 | O=C(C(=O)N1CCN(c2nnnn2-c2ccccc2)CC1)c1c[nH]c2c(-c3cc(C(=O)N4CCN(C(=O)C5CCCO5)CC4)[nH]n3)ncc(F)c12 (stereo not shown) [F-4] | < 500
6 | COc1nc(-c2ncc(OC)c3c(C(=O)C(=O)N4CCN(c5nnnn5-c5ccccn5)CC4)c[nH]c23)cs1 [B-69] | < 500
7 | COc1cnc(-c2ccc(F)nc2)c2[nH]cc(C(=O)C(=O)N3CCN(c4nnnn4-c4ccccn4)CC3)c12 [H-13] | < 500
8 | COc1cnc(-n2ccnn2)c2[nH]cc(C(=O)C(=O)N3C(C)CN(c4nnnn4-c4ccccc4)CC3C)c12 (stereo not shown) [A-58] | < 500
9 | CS(=O)(=O)c1nc(N2CCN(C(=O)C(=O)c3c[nH]c4c(-n5ccnn5)ncc(F)c34)CC2)n(-c2ccccc2)n1 [G-28a] | < 500
10 | CSc1nc(N2CCN(C(=O)C(=O)c3c[nH]c4c(-n5ccnn5)ncc(F)c34)CC2)n(-c2ccccc2)n1 [G-26a] | < 500
11 | COc1cnc(-n2cnc(C)n2)c2[nH]cc(C(=O)C(=O)N3CCN(c4snnc4-c4ccccc4)C[C@H]3C)c12 [D-14] | < 500
12 | O=C(C(=O)N1CCN(c2nnnn2-c2ncco2)CC1)c1c[nH]c2c(-n3ccnn3)ncc(F)c12 [E-6] | < 500
13 | O=C(C(=O)N1CCN(c2ccnn2-c2ccccn2)CC1)c1c[nH]c2c(-n3ccnn3)ncc(F)c12 [E-14, 1-(4-fluoro-7-(1H-1,2,3-triazol-1-yl)-1H-pyrrolo[2,3-c]pyridinyl-3-yl)-2-(4-(1-(pyridin-2-yl)-1H-pyrazol-5-yl)piperazin-1-yl)ethane-1,2-dione] | < 500
14 | COc1cnc(C(=O)NC2CC2)c2[nH]cc(C(=O)C(=O)N3CCN(c4nnnn4-c4ccccn4)CC3)c12 [B-66] | < 500
15 | O=C(C(=O)N1CCN(c2nnnn2-c2ccccc2)CC1)c1c[nH]c2c(-c3cc(C(=O)N4CCCC(O)C4)[nH]n3)ncc(F)c12 (stereo not shown) [F-11] | < 500
16 | COc1cnc(-n2cnc(C)n2)c2[nH]cc(C(=O)C(=O)N3CCN(c4nccnc4OC(C)C)CC3)c12 [D-49] | < 500
17 | O=C(C(=O)N1CCN(N2C(=O)CC2c2ccccc2)CC1)c1c[nH]c2c(-n3ccnn3)ncc(F)c12 (stereo not shown) [A-23] | > 500
18 | O=C(c1ccccn1)c1cccnc1N1CCN(C(=O)C(=O)c2c[nH]c3c(-n4ccnn4)ncc(F)c23)CC1 [D-32] | < 500
19 | COc1cnc(-c2cc(C(=O)NCCO)[nH]n2)c2[nH]cc(C(=O)C(=O)N3CCN(c4nnnn4-c4ccccc4)CC3)c12 [B-8, N-(2-hydroxyethyl)-3-(4-methoxy-3-(2-oxo-2-(4-(1-phenyl-1H-tetrazol-5-yl)piperazin-1-yl)acetyl)-1H-pyrrolo[2,3-c]pyridin-7-yl)-1H-pyrazole-5-carboxamide.TFA] | < 500
20 | COc1cnc(-n2cnc(C)n2)c2[nH]cc(C(=O)C(=O)N3CCN(c4nnnn4-c4cccc(O)n4)CC3)c12 [E-12c] | < 500

Row | SMILES | EC50 [nM]
21 | COc1cnc(-n2cnc(C)n2)c2[nH]cc(C(=O)C(=O)N3CCN(c4cn[nH]c4-c4ccccn4)CC3)c12 [E-17, 1-(4-methoxy-7-(3-methyl-1H-1,2,4-triazol-1-yl)-1H-pyrrolo[2,3-c]pyridinyl-3-yl)-2-(4-(3-(pyridin-2-yl)-1H-pyrazol-4-yl)piperazin-1-yl)ethane-1,2-dione] | < 500
22 | O=C(C(=O)N1CCC(n2ccnc2-c2ccccc2)CC1)c1c[nH]c2c(-n3ccnn3)ncc(F)c12 [G-11a] | < 500
23 | O=C(C(=O)N1CCC(c2nnc(-c3ccccc3)o2)CC1)c1c[nH]c2c(-n3ccnn3)ncc(F)c12 [A-33] | > 500
24 | Cc1nnc(N2CCN(C(=O)C(=O)c3c[nH]c4c(-n5ccnn5)ncc(F)c34)CC2)n1-c1ccccc1 [A-47] | < 500
25 | O=C(C(=O)N1CCN(c2nccn2-c2ccccc2)CC1)c1c[nH]c2c(-n3ccnn3)ncc(F)c12 [A-49] | < 500
26 | COc1cnc(-c2ccn(CC(=O)O)n2)c2c1c(C(=O)C(=O)N1CCN(c3nnnn3-c3ccccn3)CC1)cn2CC(=O)O [B-74] | > 500
27 | COc1cnc(-n2cnc(C)n2)c2[nH]cc(C(=O)C(=O)N3CCN(c4[nH]nnc4-c4ccccc4)CC3)c12 [G-8b] | < 500
28 | O=C(C(=O)N1CCN(c2ccccc2C(F)(F)F)CC1)c1c[nH]c2c(-n3ccnn3)ncc(F)c12 [A-52] | > 500
29 | C[C@@H]1CN(c2nnnn2-c2ccccc2)C[C@H](C)N1C(=O)C(=O)c1c[nH]c2c(-n3ccnn3)ncc(F)c12 [C-1, 1-((2R,6S)-2,6-dimethyl-4-(1-phenyl-1H-tetrazol-5-yl)piperazin-1-yl)-2-(4-fluoro-7-(1H-1,2,3-triazol-1-yl)-1H-pyrrolo[2,3-c]pyridin-3-yl)ethane-1,2-dione] | < 500
30 | O=C(C(=O)N1CCN(c2nnnn2-c2nccs2)CC1)c1c[nH]c2c(-n3ccnn3)ncc(F)c12 [E-4] | < 500
31 | COc1cnc(-n2cnc(C)n2)c2[nH]cc(C(=O)C(=O)N3CCN(c4nnnn4-c4ccccc4)[C@H](C)C3)c12 [A-46] | < 500
32 | C[C@H]1CN(c2nnnn2-c2ccccc2)CCN1C(=O)C(=O)c1c[nH]c2c(-n3ccnn3)ncc(F)c12 [A-15] | < 500
33 | COc1nc(N2CCN(C(=O)C(=O)c3c[nH]c4c(-n5ccnn5)ncc(F)c34)CC2)n(-c2ccccc2)n1 [G-29a] | < 500
34 | CN(C)CCCNC(=O)c1cccnc1N1CCN(C(=O)C(=O)c2c[nH]c3c(-n4ccnn4)ncc(F)c23)CC1 [D-37] | > 500
35 | O=C(C(=O)N1CCN(c2nnnn2-c2ccccc2)CC1)c1c[nH]c2c(-c3cc(C(=O)N4CCC[C@H]4CO)[nH]n3)ncc(F)c12 [F-6] | < 500
36 | C[C@@H]1CN(c2nn(C)c(=O)cc2-c2ccccc2)CCN1C(=O)C(=O)c1c[nH]c2c(-n3ccnn3)ncc(F)c12 [D-36] | > 500
37 | CCOC(=O)c1cccnc1N1CCN(C(=O)C(=O)c2c[nH]c3c(-n4ccnn4)ncc(F)c23)CC1 [D-24] | < 500
38 | COc1cnc(-n2cnc(C)n2)c2[nH]cc(C(=O)C(=O)N3CCN(c4cnn(C)c4-c4ccccc4)CC3)c12 [G-13b] | < 500
39 | O=C(NCCc1ccncc1)c1cc(-c2ncc(F)c3c(C(=O)C(=O)N4CCN(c5nnnn5-c5ccccc5)CC4)c[nH]c23)n[nH]1 [B-41] | < 500
40 | O=C(C(=O)N1CCN(c2cn[nH]c2-c2ccccn2)CC1)c1c[nH]c2c(-n3ccnn3)ncc(F)c12 [E-16, 1-(4-fluoro-7-(1H-1,2,3-triazol-1-yl)-1H-pyrrolo[2,3-c]pyridinyl-3-yl)-2-(4-(3-(pyridin-2-yl)-1H-pyrazol-4-yl)piperazin-1-yl)ethane-1,2-dione] | < 500

Row | SMILES | EC50 [nM]
41 | COc1cnc(-c2cc(C(C)(C)O)[nH]n2)c2[nH]cc(C(=O)C(=O)N3CCN(c4nnnn4-c4ccccn4)CC3)c12 [B-68] | < 500
42 | CCOc1cccnc1N1CCN(C(=O)C(=O)c2c[nH]c3c(-n4ccnn4)ncc(F)c23)CC1 [A-62] | < 500
43 | O=C(C(=O)N1CCN(c2ccccc2-c2ccccc2)CC1)c1c[nH]c2c(-n3ccnn3)ncc(F)c12 [A-4] | < 500
44 | COc1cnc(-n2cnc(C)n2)c2[nH]cc(C(=O)C(=O)N3CCN(c4nnnn4-c4nccs4)CC3)c12 [E-5] | < 500
45 | O=C(C(=O)N1CCN(c2nnnn2-c2ccccc2)CC1)c1c[nH]c2cccc(F)c12 [A-27] | < 500
46 | COc1cnc(-n2cnc(C)n2)c2[nH]cc(C(=O)C(=O)N3CCN(c4nc5ccccc5n4-c4ccccc4)CC3)c12 [A-38] | < 500
47 | COc1cnc(-n2cnc(C)n2)c2[nH]cc(C(=O)C(=O)N3CCN(c4ncccc4I)CC3)c12 [D-2] | < 500
48 | COc1cnc(-c2cc(CNCCO)[nH]n2)c2[nH]cc(C(=O)C(=O)N3CCN(c4nnnn4-c4ccccc4)CC3)c12 [B-24, 1-(7-(5-((2-hydroxyethylamino)methyl)-1H-pyrazol-3-yl)-4-methoxy-1H-pyrrolo[2,3-c]pyridin-3-yl)-2-(4-(1-phenyl-1H-tetrazol-5-yl)piperazin-1-yl)ethane-1,2-dione TFA] | < 500
49 | O=C(c1nccs1)c1cccnc1N1CCN(C(=O)C(=O)c2c[nH]c3cccc(F)c23)CC1 [A-67] | > 500
50 | O=C(C(=O)N1CCC(c2nccn2-c2ccccc2)CC1)c1c[nH]c2c(-n3ccnn3)ncc(F)c12 [G-18a] | < 500
51 | O=C(C(=O)N1CCN(c2cn(CCN3CCOCC3)nc2-c2ccccc2)CC1)c1c[nH]c2c(-n3ccnn3)ncc(F)c12 [G-16] | < 500
52 | O=C(NCCCN1CCCC1=O)c1cc(-c2ncc(F)c3c(C(=O)C(=O)N4CCN(c5nnnn5-c5ccccc5)CC4)c[nH]c23)n[nH]1 [F-12] | < 500
53 | O=C(NCCN1CCCC1)c1cc(-c2ncc(F)c3c(C(=O)C(=O)N4CCN(c5nnnn5-c5ccccc5)CC4)c[nH]c23)n[nH]1 [B-40] | < 500
54 | O=C(C(=O)N1CCN(c2[nH]nnc2-c2ccccc2)CC1)c1c[nH]c2c(-n3ccnn3)ncc(F)c12 [G-8a] | < 500
55 | CN(C)CCCNC(=O)c1cc(-c2ncc(F)c3c(C(=O)C(=O)N4CCN(c5c[nH]nc5-c5ccccc5)CC4)c[nH]c23)n[nH]1 [B-53] | < 500
56 | COc1cnc(-n2cnc(C)n2)c2[nH]cc(C(=O)C(=O)N3CCN(c4ncccc4N4CC(C)(C)C4=O)C[C@H]3C)c12 [D-12] | > 500
57 | COc1cnc(-c2cc[nH]n2)c2[nH]cc(C(=O)C(=O)N3CCN(c4nnnn4-c4ccccn4)CC3)c12 [B-72] | < 500
58 | CN(C)CCN(C)C(=O)c1cc(-c2ncc(F)c3c(C(=O)C(=O)N4CCN(c5nnnn5-c5ccccc5)CC4)c[nH]c23)n[nH]1 [B-35] | < 500
